In US12376590B2, “Compositions comprising pyridine carboxylate herbicides and azole carboxylate safeners” (Corteva Agriscience LLC, priority 2018, dated 2025):

Columns and labels:
Assay in all cases: Greenhouse postemergence herbicidal safening trial, visual injury after 20-22 d
[1] = system: herbicide-resistant kochia (KCHSC-R); assay type: in vivo, Kochia scoparia
From the text: (§1) Greenhouse Trial Methodology—Evaluation of Postemergence Herbicidal Safening in Crops
(§2) Seeds of the desired test plant species were planted in a 90:10% v/v (volume/volume) mixture of PRO-MIX® BX (Premier Tech Horticulture, Quakertown, PA, USA) and PROFILE® GREENS GRADE™ (Profile Products LLC, Buffalo Grove, IL, USA) planting mixture, which typically has a pH of 5.2 to 6.2 and an organic matter content of at least 50 percent, in plastic pots with a surface area of 103.2 square centimeters (cm^2). When required to ensure good germination and healthy plants, a fungicide treatment and/or other chemical or physical treatment was applied. The plants were grown for 7-36 days (d) in a greenhouse with an approximate 14-hour (h) photo-period which was maintained at about 23° C. during the day and 22° C. during the night. Nutrients and water were added on a regular basis and supplemental lighting was provided with overhead metal halide 1000-Watt lamps as necessary. The plants were employed for testing when they reached the second or third true leaf stage.
(§3) Emulsifiable concentrates of each of each pyridine carboxylate herbicide (Compound A or Compound B) were prepared at 100 grams acid equivalent per liter (g ae/L). An aliquot of each emulsifiable concentrate was placed in a 25 mL glass vial and diluted with an aqueous mixture of 1.25% (v/v) ACTIROB® B esterified rapeseed oil (Bayer Crop Science, Research Triangle Park, NC, USA) or MSO® Concentrate with LECI-TECH® methylated soybean oil (Loveland Products, Loveland, CO, USA) to obtain concentrated stock solutions at the highest application rate for each herbicide, based upon a 12 milliliter (mL) application volume at a rate of 187 liters per hectare (L/ha). The concentrated stock solutions were further diluted with an aqueous mixture of 1.25% v/v ACTIROB® B or MSO® Concentrate with LECI-TECH® to obtain stock solutions at reduced application rates for each herbicide. Spray solutions of the herbicide combinations (Compound A or Compound B plus safener) were prepared by adding weighed amounts or aliquots of the azole carboxylate safener to the stock solutions of Compound A or Compound B to form 12-mL spray solutions in two-way combinations.
(§4) The spray solutions were applied to the plant material with an overhead Mandel track sprayer equipped with 8002E nozzles calibrated to deliver 187 L/ha over an application area of 0.503 square meters (m^2) at a spray height of 18 inches (43 centimeters (cm)) above the average plant canopy. Control plants were sprayed in the same manner with the solvent blank. All herbicide (component a) application rates are given as “g ae/ha” and all safener (component b) application rates are given as “g ai/ha.”
(§5) The treated plants and control plants were placed in a greenhouse as described above and watered by sub-irrigation to prevent wash-off of the test compounds. After 20-22 d, the condition of the test plants as compared with that of the control plants was determined visually and scored on a scale of 0 to 100 percent where 0 corresponds to no injury and 100 corresponds to complete kill.

kochia (KCHSC) = assay type: in vivo, Kochia scoparia
From the text: as §1, §2, §3, §4, §5

spring barley (HORVS) = assay type: in vivo, Hordeum vulgare; conditions: applied alone
From the text: as §1, §2, §3, §4, §5

large crabgrass (DIGSA) = assay type: in vivo, Digitaria sanguinalis
From the text: as §1, §2, §3, §4, §5

spring wheat (TRZAS) = assay type: in vivo, Triticum aestivum; conditions: applied alone
From the text: as §1, §2, §3, §4, §5

winter wheat (TRZAW) = assay type: in vivo, Triticum aestivum
From the text: as §1, §2, §3, §4, §5

soybean (GLXMA) = assay type: in vivo, Glycine max
From the text: as §1, §2, §3, §4, §5

winter rape (BRSNW) = assay type: in vivo, Brassica napus
From the text: as §1, §2, §3, §4, §5

Canada horseweed (ERICA) = assay type: in vivo, Erigeron canadensis
From the text: as §1, §2, §3, §4, §5

velvetleaf (ABUTH) = assay type: in vivo, Abutilon theophrasti
From the text: as §1, §2, §3, §4, §5

maize (ZEAMX) = assay type: in vivo, Zea mays
From the text: as §1, §2, §3, §4, §5

giant foxtail (SETFA) = assay type: in vivo, Setaria faberi
From the text: as §1, §2, §3, §4, §5

common sunflower (HELAN) = assay type: in vivo, Helianthus annuus
From the text: as §1, §2, §3, §4, §5

Italian ryegrass (LOLMU) = assay type: in vivo, Lolium multiflorum
From the text: as §1, §2, §3, §4, §5

Russian thistle (SASKR) = assay type: in vivo, Salsola kali; conditions: applied alone
From the text: as §1, §2, §3, §4, §5

wild chamomile (MATCH) = assay type: in vivo, Matricaria chamomilla; conditions: applied alone
From the text: as §1, §2, §3, §4, §5

Measured: % visual injury Ob

CCOC(=O)C1=NN(c2ccc(Cl)cc2Cl)C(C)(C(=O)OCC)C1 (stereo not shown) [Mefenpyr-diethyl, mefenpyr-diethyl]
0%: [1]; Mefenpyr-diethyl 20 g/ha | [1]; Mefenpyr-diethyl 40 g/ha | [1]; Mefenpyr-diethyl 80 g/ha | kochia (KCHSC); Mefenpyr-diethyl 20 g/ha | kochia (KCHSC); Mefenpyr-diethyl 40 g/ha | kochia (KCHSC); Mefenpyr-diethyl 80 g/ha | spring barley (HORVS); 10 g/ha | spring barley (HORVS); 20 g/ha | spring barley (HORVS); 40 g/ha | spring barley (HORVS); 80 g/ha | spring barley (HORVS); 120 g/ha | large crabgrass (DIGSA); Mefenpyr-diethyl 20 g/ha | large crabgrass (DIGSA); Mefenpyr-diethyl 40 g/ha | large crabgrass (DIGSA); Mefenpyr-diethyl 80 g/ha | spring wheat (TRZAS); 10 g/ha | spring wheat (TRZAS); 20 g/ha | spring wheat (TRZAS); 40 g/ha | spring wheat (TRZAS); 80 g/ha | spring wheat (TRZAS); 120 g/ha | winter wheat (TRZAW); Mefenpyr-diethyl 20 g/ha | winter wheat (TRZAW); Mefenpyr-diethyl 40 g/ha | winter wheat (TRZAW); Mefenpyr-diethyl 80 g/ha | winter wheat (TRZAW); applied alone, 20 g/ha | winter wheat (TRZAW); applied alone, 40 g/ha | winter wheat (TRZAW); applied alone, 80 g/ha | winter wheat (TRZAW); applied alone, 120 g/ha | soybean (GLXMA); Mefenpyr-diethyl 20 g/ha | soybean (GLXMA); Mefenpyr-diethyl 40 g/ha | soybean (GLXMA); Mefenpyr-diethyl 80 g/ha | winter rape (BRSNW); Mefenpyr-diethyl 20 g/ha | winter rape (BRSNW); Mefenpyr-diethyl 40 g/ha | winter rape (BRSNW); Mefenpyr-diethyl 80 g/ha | Canada horseweed (ERICA); Mefenpyr-diethyl 20 g/ha | Canada horseweed (ERICA); Mefenpyr-diethyl 40 g/ha | Canada horseweed (ERICA); Mefenpyr-diethyl 80 g/ha | velvetleaf (ABUTH); Mefenpyr-diethyl 20 g/ha | velvetleaf (ABUTH); Mefenpyr-diethyl 40 g/ha | velvetleaf (ABUTH); Mefenpyr-diethyl 80 g/ha | maize (ZEAMX); Mefenpyr-diethyl 20 g/ha | maize (ZEAMX); Mefenpyr-diethyl 40 g/ha | maize (ZEAMX); Mefenpyr-diethyl 80 g/ha | maize (ZEAMX); applied alone, 20 g/ha | maize (ZEAMX); applied alone, 40 g/ha | maize (ZEAMX); applied alone, 80 g/ha | maize (ZEAMX); applied alone, 120 g/ha | giant foxtail (SETFA); Mefenpyr-diethyl 20 g/ha | giant foxtail (SETFA); Mefenpyr-diethyl 40 g/ha | giant foxtail (SETFA); Mefenpyr-diethyl 80 g/ha | common sunflower (HELAN); Mefenpyr-diethyl 20 g/ha | common sunflower (HELAN); Mefenpyr-diethyl 40 g/ha | common sunflower (HELAN); Mefenpyr-diethyl 80 g/ha | common sunflower (HELAN); applied alone, 20 g/ha | common sunflower (HELAN); applied alone, 40 g/ha | common sunflower (HELAN); applied alone, 80 g/ha | common sunflower (HELAN); applied alone, 120 g/ha | Italian ryegrass (LOLMU); Mefenpyr-diethyl 20 g/ha | Italian ryegrass (LOLMU); Mefenpyr-diethyl 40 g/ha | Italian ryegrass (LOLMU); Mefenpyr-diethyl 80 g/ha | Russian thistle (SASKR); 10 g/ha | Russian thistle (SASKR); 20 g/ha | Russian thistle (SASKR); 40 g/ha | wild chamomile (MATCH); 10 g/ha | wild chamomile (MATCH); 20 g/ha | wild chamomile (MATCH); 40 g/ha
